For orientation: pIC50 means −log10 of the IC50, conventionally taken in molar units.

28 compounds from patent US12139487B2, “Compounds and uses thereof” (Foghorn Therapeutics Inc., priority 2022, dated 2024) can be followed below.

The assay concerns BRM-dependent transcription (BRG1 mutant lung cancer cell line A549). As to the kind of experiment: BRM-dependent transcription, MMTV luciferase reporter in BRG1 mutant A549 cells. Format: cell-based. The following applies: Table 11; for pIC50: Homo sapiens, A549, 6 h, A549-MMTV luciferase reporter, dexamethasone induced, 6 hours; for Ratio (MDA-MMTV IC50 (μM) divided by A549-MMTV IC50 (μM)): MMTV luciferase reporter cell lines, selectivity BRG1/BRM. Here is the method: The potential inhibitory effects of compounds on BRG1 and BRM dependent transcription was study by testing the activity of against the BRG1 mutant lung cancer cell line A549 and a MDA cell line with BRM removed by CRISPR. Both cell lines were genetically engineered with a BRG1 or BRM-dependent mouse mammary tumor virus luciferase reporter. Luciferase transcription was induced by dexamethasone in the presence of compound at different concentrations and luminescence was measured using a plate reader 6 hours after stimulation.
Background: A reporter such as luciferase makes a cellular process visible.

pIC50: −log10 of the molar value.

Regarding `COC1(c2cccc(-c3ccc4cnc(CNC(=O)c5cc(F)c6c(c5)S(=O)(=O)[C@@H](F)CCO6)cc4n3)n2)CC1` [Compound 403], the pIC50 was 7.85 and the “Ratio (MDA-MMTV IC50 (μM) divided by A549-MMTV IC50 (μM))” value is reported as 27.49.
For `O=C(NCc1cc2nc(-c3cccc(OC(F)F)n3)ccc2cn1)c1cc(C(F)F)c2c(c1)S(=O)(=O)[C@@H](F)COC2` [Compound 404], in that order: 7.81 and 36.02.
For `C[C@@H]1CN(c2cccc(-c3cnc4cnc(CNC(=O)c5cc(F)c6c(c5)S(=O)(=O)[C@@H](F)CCO6)cc4n3)n2)C[C@H](C)O1` [Compound 405, (4R)—N-[[2-[6-[(2R,6S)-2,6-dimethylmorpholin-4-yl]-2-pyridyl]pyrido[3,4-b]pyrazin-7-yl]methyl]-4,9-difluoro-5,5-dioxo-3,4-dihydro-2H-1,5λ6-benzoxathiepine-7-carboxamide], in that order: 8.55 and 22.10.
For `O=C(NCc1cc2nc(-c3ccc([C@@H](F)CF)c(C4CC4)n3)ccc2cn1)c1cc(F)c2c(c1)S(=O)(=O)[C@@H](F)CCO2` [Compound 406], in that order: 8.23 and 27.42.
With `C=Cc1cc(C(=O)NCc2cc3nc(-c4cccc(N5C[C@@H](C)O[C@@H](C)C5)n4)ccc3cn2)cc2c1OCC[C@H](F)S2(=O)=O` [Compound 407], the pIC50 was 7.93 and the “Ratio (MDA-MMTV IC50 (μM) divided by A549-MMTV IC50 (μM))” value worked out at 29.00.
Consider `O=C(NCc1cc2nc(-c3ccc(OC(F)F)c(C4CC4)n3)ccc2cn1)c1cc(Br)c2c(c1)S(=O)(=O)[C@@H](F)COC2` [Compound 408], for which the pIC50 was 7.78 and the “Ratio (MDA-MMTV IC50 (μM) divided by A549-MMTV IC50 (μM))” value was found to be 32.34.
`COc1nc(OC(F)F)ccc1-c1ccc2cnc(CNC(=O)c3cc(Cl)c4c(c3)S(=O)(=O)[C@@H](F)COC4)cc2n1` [Compound 409]: the pIC50 is 7.85 and the “Ratio (MDA-MMTV IC50 (μM) divided by A549-MMTV IC50 (μM))” value worked out at 25.36.
On to `COc1nc(C(F)F)ccc1-c1ccc2cnc(CNC(=O)c3cc(Br)c4c(c3)S(=O)(=O)[C@@H](F)COC4)cc2n1` [Compound 410], for which the pIC50 was 7.84 and the “Ratio (MDA-MMTV IC50 (μM) divided by A549-MMTV IC50 (μM))” value is on record as 27.39.
In the case of `O=C(NCc1cc2nc(-c3ccc([C@H](F)CF)c(C4CC4)n3)ccc2cn1)c1cc(F)c2c(c1)S(=O)(=O)[C@@H](F)CCO2` [Compound 411], the pIC50 is 8.07 and the “Ratio (MDA-MMTV IC50 (μM) divided by A549-MMTV IC50 (μM))” value is 24.27.
For `COCCOc1cnc2c(c1)CCCN2c1ccc2cnc(CNC(=O)c3cc(Cl)c4c(c3)S(=O)(=O)[C@@H](F)COC4)cc2n1` [Compound 412], in that order: 7.92 and 21.10.
Regarding `Cc1cc(C(=O)NCc2cc3nc(-c4ccc(OC(F)F)c(C5CC5)n4)ccc3cn2)cc2c1COC[C@H](F)S2(=O)=O` [Compound 413], the pIC50 is 8.21 and the “Ratio (MDA-MMTV IC50 (μM) divided by A549-MMTV IC50 (μM))” value was found to be 27.54.
For `COCCOc1cnc2c(c1)OCCN2c1ccc2cnc(CNC(=O)c3cc(Cl)c4c(c3)S(=O)(=O)[C@@H](F)CCO4)cc2n1` [Compound 414], in that order: 7.82 and 22.34.
As for `O=C(NCc1cc2nc(-c3ccc(OC(F)F)c(C4CC4)n3)ccc2cn1)c1cc(C(F)F)c2c(c1)S(=O)(=O)[C@@H](F)COC2` [Compound 415], the pIC50 was 8.12 and the “Ratio (MDA-MMTV IC50 (μM) divided by A549-MMTV IC50 (μM))” value is 35.99.
As to `CCOc1ccc(-c2ccc3cnc(CNC(=O)c4cc(C(F)F)c5c(c4)S(=O)(=O)[C@@H](F)COC5)cc3n2)nc1C1CC1(F)F` (some centres unmarked) [Compound 416], the pIC50 was 7.70 and the “Ratio (MDA-MMTV IC50 (μM) divided by A549-MMTV IC50 (μM))” value is reported as 50.12.
`O=C(NCc1cc2nc(-c3cccc(C4CC4)n3)ccc2cn1)c1cc(Br)c2c(c1)S(=O)(=O)[C@@H](F)COC2` [Compound 417]: the pIC50 was 7.56 and the “Ratio (MDA-MMTV IC50 (μM) divided by A549-MMTV IC50 (μM))” value is reported as 39.11.
For `[2H]C1([2H])Oc2c(Cl)cc(C(=O)NCc3cc4nc(-c5cccc(OC(F)F)n5)ccc4cn3)cc2S(=O)(=O)[C@@H](F)C1([2H])[2H]` [Compound 418], in that order: 7.62 and 52.60.
For `[2H]C1([2H])Oc2c(Cl)cc(C(=O)NCc3cc4nc(-c5ccc(OC(F)F)c(C6CC6)n5)ccc4cn3)cc2S(=O)(=O)[C@@H](F)C1([2H])[2H]` [Compound 419], in that order: 7.76 and 28.69.
For `O=C(NCc1cc2nc(-c3ccnc(C4CC4(F)F)n3)ccc2cn1)c1cc(Cl)c2c(c1)S(=O)(=O)[C@@H](F)COC2` (some centres unmarked) [Compound 420], in that order: 7.59 and 24.69.
As to `[2H]C([2H])([2H])C([2H])([2H])Oc1nc([C@H](C)F)ccc1-c1ccc2cnc(CNC(=O)c3cc(F)c4c(c3)S(=O)(=O)[C@@H](F)CCO4)cc2n1` [Compound 421], the pIC50 is 8.10 and the “Ratio (MDA-MMTV IC50 (μM) divided by A549-MMTV IC50 (μM))” value turned out to be 23.62.
For `COCc1ccc(-c2ccc3cnc(CNC(=O)c4cc(Cl)c5c(c4)S(=O)(=O)[C@@H](F)COC5)cc3n2)nc1C1CC1` [Compound 422], in that order: 7.61 and 23.20.
For `CCOc1nc([C@@H](F)CF)ccc1-c1ccc2cnc(CNC(=O)c3cc(Cl)c4c(c3)S(=O)(=O)[C@@H](F)CCO4)cc2n1` [Compound 423], in that order: 7.98 and 32.08.
For `COCCOc1cnc2c(c1)OCCN2c1ccc2cnc(CNC(=O)c3cc(Br)c4c(c3)S(=O)(=O)[C@@H](F)CCO4)cc2n1` [Compound 424], in that order: 7.63 and 31.82.
On to `O=C(NCc1cc2nc(N3CCC(F)(F)c4cc(C5CC5)cnc43)ccc2cn1)c1cc(F)c2c(c1)S(=O)(=O)[C@@H](F)CCO2` [Compound 425], for which the pIC50 is 8.64 and the “Ratio (MDA-MMTV IC50 (μM) divided by A549-MMTV IC50 (μM))” value is recorded as 24.38.
Consider `COCCOc1cnc2c(c1)OCCN2c1ccc2cnc(CNC(=O)c3cc(Br)c4c(c3)S(=O)(=O)[C@@H](F)COC4)cc2n1` [Compound 426], for which the pIC50 was 7.99 and the “Ratio (MDA-MMTV IC50 (μM) divided by A549-MMTV IC50 (μM))” value turned out to be 25.72.
On to `COCCOc1cnc2c(c1)CCCN2c1ccc2cnc(CNC(=O)c3cc(Br)c4c(c3)S(=O)(=O)[C@@H](F)COC4)cc2n1` [Compound 427], for which the pIC50 is 7.69 and the “Ratio (MDA-MMTV IC50 (μM) divided by A549-MMTV IC50 (μM))” value was found to be 32.84.
For `O=C(NCc1cc2nc(-c3ccc(OCCO)c(C4CC4)n3)ccc2cn1)c1cc(Cl)c2c(c1)S(=O)(=O)[C@@H](F)COC2` [Compound 428], in that order: 7.69 and 26.26.
For `O=C(NCc1cc2nc(-c3cccc(C4CC4)n3)ccc2cn1)c1cc(C(F)F)c2c(c1)S(=O)(=O)[C@@H](F)COC2` [Compound 429], in that order: 7.77 and 32.94.
Take `CCOc1nc(C(F)F)ccc1-c1ccc2cnc(CNC(=O)c3cc(C(F)F)c4c(c3)S(=O)(=O)[C@@H](F)COC4)cc2n1` [Compound 430]: the pIC50 was 8.09 and the “Ratio (MDA-MMTV IC50 (μM) divided by A549-MMTV IC50 (μM))” value is given as 40.24.
